18 molecules from US20060228313A1, “Method of cosmetic depigmentation care by applying at least one aurone” (Coletica, priority 2005, published 2006) can be followed below.

Bounds are passed on as bounds.

In series [1] the test system is normal human melanocytes. Description: Cytotoxicity on normal human melanocytes, PNPP determination. The series is classed as cell-based. The settings on record: 24 hours. The procedure:
The cytotoxicity of the actives is studied on normal human melanocytes in a 24-well plate by a determination with PNPP(P-nitrophenyl phosphate), a substance which is converted into p-nitrophenol by the intracellular acid phosphatases of viable cells.
The absorbance of p-nitrophenol at 405 nm is directly proportional to the number of viable cells.
The actives are tested at 2 different concentrations (10^−4 M and 10^−5 M) and are added to the culture medium and are incubated at 37° C. for 24 hours. The determination with PNPP is carried out on a cell mat and the results are expressed as a percentage viability with respect to the negative control (non-treated wells).

Another series has as its target T1, Human tyrosinase (Homo sapiens, UniProt P14679).
T1 construct: Normal human melanocytes (originating from abdominal plasty) are sown in a 24-well plate; endogenous in cells; host or cells: normal human melanocytes (abdominal plasty; donors of light, brown and black phototype)
T1 sequence (P14679 19-529): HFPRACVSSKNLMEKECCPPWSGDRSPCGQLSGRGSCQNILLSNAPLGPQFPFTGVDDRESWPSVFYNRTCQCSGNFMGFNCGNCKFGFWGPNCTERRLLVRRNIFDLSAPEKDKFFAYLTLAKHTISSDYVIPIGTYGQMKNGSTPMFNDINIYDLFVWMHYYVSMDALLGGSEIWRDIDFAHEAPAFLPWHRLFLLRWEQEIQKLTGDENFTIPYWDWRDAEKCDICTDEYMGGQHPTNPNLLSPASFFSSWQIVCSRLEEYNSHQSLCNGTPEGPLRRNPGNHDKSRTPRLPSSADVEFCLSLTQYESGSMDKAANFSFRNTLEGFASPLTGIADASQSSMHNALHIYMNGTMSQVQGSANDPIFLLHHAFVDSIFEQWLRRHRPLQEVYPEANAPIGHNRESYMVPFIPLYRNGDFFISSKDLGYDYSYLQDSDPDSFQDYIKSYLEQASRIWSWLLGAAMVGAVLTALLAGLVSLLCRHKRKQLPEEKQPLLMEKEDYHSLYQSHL
As to the kind of experiment: Inhibition of human tyrosinase in a monolayer after application of the actives on normal human melanocytes. It counts as cell-based. The settings on record: for Inhibition of human tyrosinase after application on normal human melanocytes, percentage inhibition: 24 hours; for Inhibition of human tyrosinase on normal human melanocytes, result in words: model of Example 15. How it is done: Normal human melanocytes (originating from abdominal plasty) are sown in a 24-well plate at the rate of 80,000 cells per well. They are cultivated up to confluence and the actives are applied for 24 hours in the culture media. After 24 hours, the media are removed and the melanocytes are picked up by mechanical action. An extraction is made by heat shock and the supernatants are then recovered and then incubated with MBTH (Sigma) and L-Dopa (Sigma). The OD at 490 nm is measured after 30 minutes, and the inhibition is of the tyrosinase is calculated by comparing the OD at 490 nm to the protein level (measured in each culture well) of the test with respect to the ratio: OD 490 nm/concentration of protein of the negative control (non-treated control). […]

For series [2], the system named is normal human melanocytes. From the text: A study is made with molecules known in the literature for their depigmenting activity. These molecules are applied to the model described in Example 15 so as to compare their efficiency with respect to the aurones is described above.
The next series deals with eye of rabbits. Description: Evaluation of the ocular irritation in the rabbit (OECD 405). It counts as in vivo. The settings on record: compound at 10% in a 0.5% xanthan gum, instilled pure, 0.1 ml. The procedure:
(§1) Toxicology tests were carried out on the compound obtained according to Example 9 incorporated at 10% in a 0.5% xanthan gum, by an ocular evaluation in the rabbit, by the study of the absence of abnormal toxicity by single oral administration in the rat and by the study of the sensitizing power in the guinea pig.
The preparations described above were instilled pure and in one batch at the rate of 0.1 ml in the eye of three rabbits according to the method recommended by the directive of the OECD NO. 405 of Feb. 24, 1987, in relation to the study of “the acute irritant/corrosive effect on the eyes”.

A short description of the next series: in vivo. The settings on record: both sexes, rat, po. How it is done:
as §1
(§2) The preparations described were administered in one batch orally at the dose of 5 g/Kg of body weight, to 5 male rats and 5 female rats according to a protocol inspired from the Directive of the OECD No. 401 of Feb. 24, 1987 and adapted to cosmetic products. The LD0 and LD50 are found to be greater than 5,000 mg/Kg. The preparations tested are therefore not classed amongst the preparations which are dangerous by ingestion.

In the next series the test system is rat. Description: in vivo. The settings on record: both, po. How it is done:
as §1, §2

The subject of the next series is guinea pig. As to the kind of experiment: Skin sensitisation potential in the guinea pig, Magnusson and Kligmann maximization test (OECD 406). The settings on record: compound at 10% in a 0.5% xanthan gum. The series is classed as in vivo. The procedure:
as §1
The preparations described are subjected to the maximization test described by Magnusson and Kligmann, a protocol which is in agreement with the directive line No. 406 of the OECD.

On to `COc1cc(O)c2c(c1)O/C(=C\c1ccccc1)C2=O` [Example 6, (Z)-2-Benzylidene-4-hydroxy-6-methoxybenzofuran-3(2H)-one], for which the “Percentages viability on normal human melanocytes” value (shortened to “Percentages viability”) in the series with normal human melanocytes [1] (10^−5 M) worked out at 121.56%.
Consider `O=C1O[C@H]([C@@H](O)CO)C(O)=C1OP(=O)(O)O` [VitC PMG, reference compound], for which the “Inhibition (%) of tyrosinase” value is on record as 2.93% on Human tyrosinase (tested at 0.03%), 1.55% at Human tyrosinase (tested at 0.3%) and −3.49% at Human tyrosinase (tested at 3%). In addition, the cytotoxicity entry with normal human melanocytes [2] is reported as “no”.
Consider `COc1cc(OC)c2c(c1)O/C(=C\c1ccc(C#N)cc1)C2=O` [Example 5d, (Z)-2-(4′-cyanobenzylidene)-4,6-dimethoxybenzofuran-3(2H)-one], for which the “Percentages viability” value in the series with normal human melanocytes [1] (10^−4 M) came out at 98.93%; in the series on normal human melanocytes [1] (10^−5 M), 96.51%.
The corresponding values for `COc1cc(OC)c2c(c1)O/C(=C\c1ccc(O)cc1)C2=O` [Example 5a, (Z)-4,6-dimethoxy-2-(4′-hydroxybenzylidene)benzofuran-3(2H)-one] are 104.53% and 90.87%.
Take `COc1ccc(/C=C2\Oc3cc(O)cc(O)c3C2=O)cc1` [Example 9, (Z)-4,6-Dihydroxy-2-(4-methoxybenzylidene)benzofuran-3(2H)-one]: in the series with eye of rabbits, the Ocular irritation result was “non-irritant for the eyes”. Also, the LD50 in “in vivo” is > 5000 mg/kg. Moreover, in the series on rat, the LD0 result is given as “greater than 5,000 mg/Kg”. Moreover, the Skin sensitisation potential result in the series on guinea pig is reported as “non-sensitizing by contact with the skin”.
For the molecule `COc1cc(OC)c2c(c1)O/C(=C\c1ccc(SC)cc1)C2=O` [Example 5c, (Z)-4,6-dimethoxy-2-(4′-methylthiobenzylidene)benzofuran-3(2H)-one], the results for the “Percentages viability” value in the series with normal human melanocytes [1] (10^−4 M) and with normal human melanocytes [1] (10^−5 M) were 80.08% and 136.13%, respectively.
With `CCc1ccc(/C=C2\Oc3cc(OC)cc(OC)c3C2=O)cc1` [Example 5b, (Z)-4,6-dimethoxy-2-(4′-ethylbenzylidene)benzofuran-3(2H)-one], the “Percentages viability” value in the series on normal human melanocytes [1] (10^−5 M) amounted to 99.62%.
As to “4,6-Dihydroxybenzofuran-3(2H)-one (R1=OH) and 6-Hydroxybenzofuran-3(2H)-one (R1=H) [Example 2]”, the “Inhibition of human tyrosinase after application on normal human melanocytes, percentage inhibition” value (shortened to “Inhibition … percentage inhibition”) at Human tyrosinase (10^−5M) worked out at 9.69%. In addition, the “Percentages viability” value is on record as 103.84% in the series with normal human melanocytes [1] (10^−4 M) and 126.09% with normal human melanocytes [1] (10^−5 M).
As to `COc1cc(O)c2c(c1)O/C(=C\c1ccc(SC)cc1)C2=O` [Example 6c], the “Inhibition … percentage inhibition” value on Human tyrosinase (10^−5M) amounted to 14.19%. Moreover, the “Percentages viability” value with normal human melanocytes [1] (10^−5 M) was determined as 116.24%.
Consider `O=C1/C(=C/c2ccc(O)cc2)Oc2cc(O)cc(O)c21` [Example 9b, (Z)-4,6-Dihydroxy-2-(4′-hydroxybenzylidene)benzofuran-3(2H)-one], for which the “Inhibition of human tyrosinase on normal human melanocytes, result in words” value on Human tyrosinase is on record as “particularly active”; on Human tyrosinase (listed as compound 9b), “high efficiency”. Also, the figures for the “Percentages viability” value in the series on normal human melanocytes [1] (10^−4 M) and with normal human melanocytes [1] (10^−5 M) were 90.31% and 128.39%, respectively.
On to `Cc1ccc(/C=C2\Oc3cc(O)cc(O)c3C2=O)s1` [Example 7q, (Z)-4,6-Dihydroxy-2-[(5-methylthiophene)methylene]benzofuran-3(2H)-one], for which the “Inhibition … percentage inhibition” value on Human tyrosinase (10^−4M) worked out at 16.4%; at Human tyrosinase (10^−5M), 7%.
The corresponding values for `COc1cc(OC)c2c(c1)O/C(=C\c1ccc(C)s1)C2=O` [Example 5q, (Z)-4,6-Dimethoxy-2-[(5-methylthiophene)methylene]benzofuran-3(2H)-one] are 4.8% and 0%.
Turning to `O=C1/C(=C/c2ccc(S(=O)(=O)O)cc2)Oc2cc(O)cc(O)c21` [Example 7e], the “Inhibition … percentage inhibition” value amounted to 0% on Human tyrosinase (10^−4M) and 4.83% at Human tyrosinase (10^−5M).
For the molecule `COc1cc(OC)c2c(c1)O/C(=C\c1ccccc1)C2=O` [Example 5, (Z)-2-Benzylidene-4,6-dimethoxybenzofuran-3(2H)-one], the “Percentages viability” value with normal human melanocytes [1] (10^−4 M) was 83.1%; in the series on normal human melanocytes [1] (10^−5 M), 98.55%.
Consider `CCc1ccc(/C=C2\Oc3cc(O)cc(O)c3C2=O)cc1` [Example 7b], for which the “Inhibition … percentage inhibition” value at Human tyrosinase (10^−5M) is reported as 4.52%. Also, the “Percentages viability” value in the series with normal human melanocytes [1] (10^−4 M) is on record as 63.52%; in the series on normal human melanocytes [1] (10^−5 M) it was 143.15%.
Regarding `COc1cc(OC)c2c(c1)OCC2=O` [Example 4, 4,6-Dimethoxybenzofuran-3(2H)-one], the “Percentages viability” value with normal human melanocytes [1] (10^−4 M) is on record as 106.77%; in the series with normal human melanocytes [1] (10^−5 M), 85.33%.
`COc1cc(O)c2c(c1)O/C(=C\c1ccc(C#N)cc1)C2=O` [Example 6d]: the “Inhibition … percentage inhibition” value at Human tyrosinase (10^−4M) amounted to 2.31%; at Human tyrosinase (10^−5M) it was 0%. For the same molecule, the “Percentages viability” value was determined as 85.65% in the series on normal human melanocytes [1] (10^−4 M) and 119.36% with normal human melanocytes [1] (10^−5 M).
For the molecule `CCc1ccc(/C=C2\Oc3cc(O)ccc3C2=O)cc1` [Example 3a, (Z)-2-(4′-Ethyl)Benzylidene-6-Hydroxybenzofuran-3(2H)-one], the “Inhibition … percentage inhibition” value at Human tyrosinase (10^−4M) came to 0%; on Human tyrosinase (10^−5M), 23.9%.

A word on the LD50: it is the dose at which mortality reaches 50%.
